From publication PMC3767384 (The Biochemical journal, 2012)

Legend:
[1] = tested on: primary bovine retinal endothelial cells (BREC); assay: In vitro permeability assay, VEGF-induced, 70 kDa RITC-Dextran; assay type: cell-based; conditions: siRNA transfection for 72 h, 50 ng/ml VEGF
PKCβ = conditions: oral administration; cited from earlier work
[2] = tested on: visual loss in diabetic retinopathy; conditions: clinical trials; cited from earlier work

| Molecule | Effect on VEGF-induced increase in retinal endothelial permeability [1] | Effect on diabetes induced-endothelial proliferation and permeability (PKCβ) | Effect on visual loss [2] |
| --- | --- | --- | --- |
| 5’-GCAAUGAACACCAGGGAAA-3’ [PKCι Construct A] | prevented the VEGF-induced increase in retinal endothelial permeability |  |  |
| CN(C)C[C@@H]1CCn2cc(c3ccccc32)C2=C(C(=O)NC2=O)c2cn(c3ccccc23)CCO1 [ruboxistaurin] |  | prevents these pathologic outcomes | delays sustained moderate visual loss in diabetic retinopathy |
